Test results reported in the supplement of paper PMC10307832.

Assays:
Assay in all cases: relative viability (nuclei count vs DMSO), 5 days (fraction); higher = more cells survive
Trametinib + Tozasertib = compound: CC(=O)Nc1cccc(-n2c(=O)n(C3CC3)c(=O)c3c(Nc4ccc(I)cc4F)n(C)c(=O)c(C)c32)c1 [Trametinib] + Cc1cc(Nc2cc(N3CCN(C)CC3)nc(Sc3ccc(NC(=O)C4CC4)cc3)n2)n[nH]1 [Tozasertib] (partner 0.1 µM)
How it was run: (§1)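 Relative viability is defined as nuclei in treated wells over nuclei in vehicle wells. Duplicate plates were run and medians reported. Lung cancer cell lines in 1536-well plates were dosed by pin tool one day after seeding, with one drug or with a fixed anchor-drug dose plus five library-drug doses (not always all listed) in √10 steps, and nuclei were counted after 5 days.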

Trametinib + Pemetrexed = compound: CC(=O)Nc1cccc(-n2c(=O)n(C3CC3)c(=O)c3c(Nc4ccc(I)cc4F)n(C)c(=O)c(C)c32)c1 [Trametinib] + Nc1nc2[nH]cc(CCc3ccc(C(=O)N[C@@H](CCC(=O)O)C(=O)O)cc3)c2c(=O)[nH]1 [Pemetrexed] (partner 0.2 µM)
How it was run: as §1

[1] = compound: CN1C=C(C2=CC=CC=C21)/C=C\3/C4=C(C=CC=N4)NC3=O + CC(=O)Nc1cccc(-n2c(=O)n(C3CC3)c(=O)c3c(Nc4ccc(I)cc4F)n(C)c(=O)c(C)c32)c1 [Trametinib] (partner 0.02 µM)
How it was run: as §1

[2] = compound: CN1C=C(C2=CC=CC=C21)/C=C\3/C4=C(C=CC=N4)NC3=O + Cc1nc(Nc2ncc(C(=O)Nc3c(C)cccc3Cl)s2)cc(N2CCN(CCO)CC2)n1 [Dasatinib] (partner 0.075 µM)
How it was run: as §1

For UMC-11, the relative viability (Trametinib + Tozasertib; first compound 0.0025 µM) was 0.199, the relative viability (Trametinib + Tozasertib; first compound 0.007906 µM) was 0.195 and the relative viability (Trametinib + Tozasertib; first compound 0.07906 µM) was 0.19. The relative viability (Trametinib + Tozasertib; first compound 0.25 µM) was 0.211, the relative viability (Trametinib + Pemetrexed; first compound 0.0025 µM) was 0.804 and the relative viability (Trametinib + Pemetrexed; first compound 0.007906 µM) was 0.741. The relative viability (Trametinib + Pemetrexed; first compound 0.07906 µM) was 0.719, the relative viability (Trametinib + Pemetrexed; first compound 0.25 µM) was 0.701 and the relative viability ([1]; first compound 0.02 µM) was 0.638. It also gave a relative viability ([1]; first compound 0.06325 µM) of 0.549, a relative viability ([1]; first compound 0.2 µM) of 0.552 and a relative viability ([1]; first compound 0.6325 µM) of 0.671. The relative viability ([1]; first compound 2 µM) was 0.78, the relative viability ([2]; first compound 0.02 µM) was 0.556 and the relative viability ([2]; first compound 0.06325 µM) was 0.449. It also gave a relative viability ([2]; first compound 0.2 µM) of 0.367, a relative viability ([2]; first compound 0.6325 µM) of 0.41 and a relative viability ([2]; first compound 2 µM) of 0.632.
